The values below come from US7030060B1, “Rest-breaking composition and use thereof” (Akzo Nobel N.V., priority 1999, dated 2006).

In the assay the test system is Golden Delicious apples. Put plainly: Usability of the organic nitrogen compound for rest-breaking. To be noted: South Africa. It is filed as in vivo. An excerpt: It is to be understood that not all compounds may work on all deciduous fruit species in all orchards.

On to choline borate, for which the “Usability on Golden Delicious apples” value is “could not be used”.
